Calls of active or inactive are those of the source.
Columns and labels:
Hexokinase HKDC1 = target: T1, Hexokinase HKDC1 (Homo sapiens, UniProt Q2TB90); assay: HKDC1 hexokinase inhibitors, dose response, biochemical, W721R variant (AID 504729); type: functional
T1 sequence (Q2TB90 whole entry): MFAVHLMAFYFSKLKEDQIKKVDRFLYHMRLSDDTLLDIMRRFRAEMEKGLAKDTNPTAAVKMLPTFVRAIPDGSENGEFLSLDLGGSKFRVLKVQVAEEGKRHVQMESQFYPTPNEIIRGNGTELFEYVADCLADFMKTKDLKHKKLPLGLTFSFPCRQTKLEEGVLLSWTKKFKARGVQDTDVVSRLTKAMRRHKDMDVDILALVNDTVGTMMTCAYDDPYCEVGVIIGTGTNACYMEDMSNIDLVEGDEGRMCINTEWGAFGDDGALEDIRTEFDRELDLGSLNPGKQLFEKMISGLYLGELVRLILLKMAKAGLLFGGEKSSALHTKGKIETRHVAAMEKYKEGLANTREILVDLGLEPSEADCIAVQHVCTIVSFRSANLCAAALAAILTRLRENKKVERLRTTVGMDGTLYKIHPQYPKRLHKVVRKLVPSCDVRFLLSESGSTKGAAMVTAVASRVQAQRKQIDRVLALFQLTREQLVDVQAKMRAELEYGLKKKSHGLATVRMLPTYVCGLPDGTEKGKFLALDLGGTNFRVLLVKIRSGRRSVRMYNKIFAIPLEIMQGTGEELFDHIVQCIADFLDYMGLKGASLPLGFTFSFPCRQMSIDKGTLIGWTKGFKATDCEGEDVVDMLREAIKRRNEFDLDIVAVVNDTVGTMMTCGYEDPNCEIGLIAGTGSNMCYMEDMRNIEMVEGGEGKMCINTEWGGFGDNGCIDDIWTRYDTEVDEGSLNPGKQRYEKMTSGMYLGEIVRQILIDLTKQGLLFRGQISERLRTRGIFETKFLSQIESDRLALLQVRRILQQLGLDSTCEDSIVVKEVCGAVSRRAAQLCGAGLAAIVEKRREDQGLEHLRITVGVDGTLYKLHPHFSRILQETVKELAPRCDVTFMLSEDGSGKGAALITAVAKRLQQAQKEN

[1] = target: T2, E3 ubiquitin-protein ligase XIAP (Homo sapiens, UniProt P98170); assay: XIAP antagonists, biochemical, IAP family, fluorescence polarization (AID 1018); type: functional
[2] = target: T2, E3 ubiquitin-protein ligase XIAP; assay: Counter Screen using XIAP-Bir3 for Chemical Antagonists of Bir1/2 domains of IAP-family anti-apoptotic proteins. [Related pubchem assays (depositor defined):AID1018, AID1449, AID1514, AID1638, AID1749, AID1750, AID488957, AID488963]
HEK293 [3] = assay: Cytotoxicity assay in HEK293 cells. [Related pubchem assays (depositor defined):AID1266, AID1269, AID1270, AID1271, AID1280, AID1281, AID1282, AID1283, AID1287, AID1289, AID1290, AID1291, AID1292, AID1293, AID1294, AID1295, AID1299, AID1302, AID1364, AID1365, AID1366, AID1367, AID1369, AID1370, AID1371, AID1372, AID1373, AID1374, AID1375, AID1384 …; type: functional, cell-based; conditions: Homo sapiens
HEK293 [4] = assay: TNF Induced NF-kB Luciferase in 293-NF-kB-Luc Stable Cells. [Related pubchem assays: 1266, 1299, 1269, 1373, 1292, 1290, 1302, 1371, 1283, 1270, 1295, 1271, 1375, 1294, 1374, 1281, 1293, 1291, 1289, 1280, 465, 1368, 1364, 1282, 1372, 1365, 1369, 1370, 1367, 1366 ]; type: functional, cell-based; conditions: Homo sapiens
[5] = target: T3, Luciferin 4-monooxygenase (Photinus pyralis, UniProt P08659); assay: In vitro luciferase assay using purified luciferase. [Related pubchem assays: 1299, 1270, 1295, 1375, 1287, 1281, 1293, 1291, 1289, 1280, 465, 1364, 1282, 1372, 1365, 1370, 1367, 1366, 1266, 1373, 1292, 1290, 1302, 1371, 1283, 1271, 1294, 1374, 1368, 1369 ]
HEK293 [6] = assay: inhibitors of LMP1-driven NF-kB reporter, dose response, cell-based, HEK293, luciferase, cherry-pick (AID 588343); type: functional; conditions: Homo sapiens
HEK293 [7] = assay: PMA/Ionomycin induced NF-kB luciferase assay in 293- NF-kB-Luc stable cells. [Related pubchem assays: 1299, 1270, 1295, 1375, 1287, 1281, 1293, 1291, 1289, 1280, 465, 1364, 1282, 1372, 1365, 1370, 1367, 1366, 1269, 1373, 1292, 1290, 1302, 1371, 1283, 1271, 1294, 1374, 1368, 1369 ]; type: functional, cell-based; conditions: Homo sapiens
[8] = target: T3, Luciferin 4-monooxygenase; assay: firefly luciferase enzyme inhibitors, dose response, biochemical, luminescence (AID 1891)
[9] = Luminescence Cell-Based Dose Confirmation HTS to Identify Inhibitors of Platelet Dense Granule Release. [Related pubchem assays: 1663 (Primary HTS), 1678 (Summary of Project)]; type: functional
[10] = target: T4, Delta-type opioid receptor (Homo sapiens, UniProt P41143); assay: HTS Image-Based Screen for Agonists of the DOR Receptor. [Related pubchem assays (depositor defined):AID1777, AID1786, AID2133]; type: functional
[11] = target: T4, Delta-type opioid receptor; assay: HTS Image-Based Screen for Antagonists of the DOR Receptor. [Related pubchem assays (depositor defined):AID1777, AID1785, AID1786, AID2133]; type: functional
Beta-galactosidase = Beta-galactosidase (Escherichia coli, UniProt Q8VNN2); type: functional
[12] = target: T5, Long-chain-fatty-acid--AMP ligase FadD28 (Mycobacterium tuberculosis, UniProt P9WQ59); assay: Fluorescence polarization aasay to screen for inhibitors that compete for the binding of FadD28 to a bisubstrate Measured in Biochemical System Using Plate Reader - 2147-01_Inhibitor_Dose_CherryPick_Activity.; type: functional, Mycobacterium tuberculosis H37Rv
T5 sequence (P9WQ59 whole entry): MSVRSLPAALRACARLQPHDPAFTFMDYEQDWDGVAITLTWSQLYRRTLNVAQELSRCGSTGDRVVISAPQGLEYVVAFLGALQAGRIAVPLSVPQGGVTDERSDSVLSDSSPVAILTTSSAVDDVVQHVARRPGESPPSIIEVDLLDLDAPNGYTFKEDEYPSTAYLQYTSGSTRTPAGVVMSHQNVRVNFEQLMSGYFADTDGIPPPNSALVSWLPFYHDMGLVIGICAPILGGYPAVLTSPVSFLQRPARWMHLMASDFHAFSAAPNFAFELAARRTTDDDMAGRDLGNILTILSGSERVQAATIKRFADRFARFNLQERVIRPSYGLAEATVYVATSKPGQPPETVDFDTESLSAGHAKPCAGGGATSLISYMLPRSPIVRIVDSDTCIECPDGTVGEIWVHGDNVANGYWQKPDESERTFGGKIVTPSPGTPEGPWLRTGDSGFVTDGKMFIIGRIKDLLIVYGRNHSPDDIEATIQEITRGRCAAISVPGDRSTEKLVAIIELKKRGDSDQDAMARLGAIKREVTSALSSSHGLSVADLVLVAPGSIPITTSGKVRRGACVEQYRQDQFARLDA

Mu-type opioid receptor = Mu-type opioid receptor (Homo sapiens, UniProt P35372); assay: HTS Image-Based Screen for Agonists of the MOR Receptor. [Related pubchem assays (depositor defined):AID1777, AID1785, AID1786, AID2133]; type: functional;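 also: imaging of beta-arrestin GFP recruitment into spots after receptor activation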
[13] = target: T6, Kappa-type opioid receptor (Homo sapiens, UniProt P41145); type: functional
[14] = target: T6, Kappa-type opioid receptor; type: functional; remark: listed apart in the source
[15] = target: Peroxisome proliferator-activated receptor gamma/Nuclear receptor coactivator 3 (Homo sapiens, UniProt P37231); assay: TR-FRET dose response biochemical High Throughput Screening assay for agonists of the steroid receptor coactivator 3 (SRC-3) recruitment by the peroxisome proliferator-activated receptor gamma (PPAR gamma): non-selective agonists. [Related pubchem assays: 1301 (Confirmation screen.), 1048 (Primary screen.)]; type: functional
HeLa = assay: HeLa cell cytotoxicity, dose response, cytotoxicity control for MITF activator project, CellTiter-Glo luminescence, cherry-pick samples (AID 540259); type: functional, cell-based; conditions: Homo sapiens
[16] = target: Peroxisome proliferator-activated receptor gamma/Nuclear receptor coactivator 2 (Homo sapiens, UniProt P37231); assay: (§1) TR-FRET dose response biochemical High Throughput Screening assay for agonists of the steroid receptor coactivator 2 (SRC-2) recruitment by the peroxisome proliferator-activated receptor gamma (PPAR gamma): non-selective agonists. [Related pubchem assays: 1297, 1032 ]; type: functional
[17] = target: Peroxisome proliferator-activated receptor gamma/Nuclear receptor coactivator 1 (Homo sapiens, UniProt P37231); assay: as §1, with “1 (SRC-1)” for “2 (SRC-2)”, “assays (depositor defined):AID1300, AID1808, AID504735, AID631]” for “assays: 1297, 1032 ]”; type: protein assay
Trypsin = Trypsin (Sus scrofa, UniProt P00761); assay: porcine trypsin inhibitors, dose response, selectivity assay for Rce1 protease inhibitor project, biochemical, quenched peptide fluorescence, cherry-pick (AID 488789)
CAAX prenyl protease 2 = CAAX prenyl protease 2 (Saccharomyces cerevisiae S288c, UniProt Q03530); type: biochemical

T6 sequence (P41145 whole entry): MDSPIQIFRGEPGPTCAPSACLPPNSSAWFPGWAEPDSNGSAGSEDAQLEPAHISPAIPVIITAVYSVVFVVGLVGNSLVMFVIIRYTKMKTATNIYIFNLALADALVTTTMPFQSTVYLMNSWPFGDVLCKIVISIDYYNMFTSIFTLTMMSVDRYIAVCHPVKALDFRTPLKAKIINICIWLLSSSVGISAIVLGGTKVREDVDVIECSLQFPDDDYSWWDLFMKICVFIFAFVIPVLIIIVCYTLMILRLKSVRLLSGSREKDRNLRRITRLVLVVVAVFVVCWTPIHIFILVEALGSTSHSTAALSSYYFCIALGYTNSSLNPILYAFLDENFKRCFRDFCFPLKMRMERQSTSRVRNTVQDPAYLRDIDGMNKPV
T2 sequence (P98170 whole entry): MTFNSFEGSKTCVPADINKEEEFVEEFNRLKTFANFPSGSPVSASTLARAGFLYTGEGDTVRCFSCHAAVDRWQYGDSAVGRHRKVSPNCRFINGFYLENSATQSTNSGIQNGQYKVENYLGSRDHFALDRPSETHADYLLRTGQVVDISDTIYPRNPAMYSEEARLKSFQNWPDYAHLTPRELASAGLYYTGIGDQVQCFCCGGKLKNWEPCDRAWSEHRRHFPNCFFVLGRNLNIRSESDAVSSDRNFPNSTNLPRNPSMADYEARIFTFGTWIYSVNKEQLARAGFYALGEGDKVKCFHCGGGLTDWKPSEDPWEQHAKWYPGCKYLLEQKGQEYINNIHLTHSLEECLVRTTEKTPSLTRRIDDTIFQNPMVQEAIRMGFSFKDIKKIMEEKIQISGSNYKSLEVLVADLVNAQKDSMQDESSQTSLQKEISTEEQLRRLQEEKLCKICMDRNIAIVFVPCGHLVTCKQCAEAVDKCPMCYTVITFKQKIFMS
T3 sequence (P08659 whole entry): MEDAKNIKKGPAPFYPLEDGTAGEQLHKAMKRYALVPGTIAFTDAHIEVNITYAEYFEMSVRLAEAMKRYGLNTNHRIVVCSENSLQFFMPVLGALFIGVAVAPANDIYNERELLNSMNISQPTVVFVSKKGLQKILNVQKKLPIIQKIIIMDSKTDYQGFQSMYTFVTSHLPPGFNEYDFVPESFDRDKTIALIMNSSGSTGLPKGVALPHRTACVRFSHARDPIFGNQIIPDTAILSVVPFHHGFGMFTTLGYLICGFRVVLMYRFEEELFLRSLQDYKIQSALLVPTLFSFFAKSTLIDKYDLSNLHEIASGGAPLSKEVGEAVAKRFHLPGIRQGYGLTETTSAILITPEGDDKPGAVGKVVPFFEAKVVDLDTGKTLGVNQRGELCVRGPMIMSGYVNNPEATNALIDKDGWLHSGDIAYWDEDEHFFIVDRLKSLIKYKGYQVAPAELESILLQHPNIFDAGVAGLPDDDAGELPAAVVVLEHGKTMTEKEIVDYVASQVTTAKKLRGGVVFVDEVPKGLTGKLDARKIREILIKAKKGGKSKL
T4 sequence (P41143 whole entry): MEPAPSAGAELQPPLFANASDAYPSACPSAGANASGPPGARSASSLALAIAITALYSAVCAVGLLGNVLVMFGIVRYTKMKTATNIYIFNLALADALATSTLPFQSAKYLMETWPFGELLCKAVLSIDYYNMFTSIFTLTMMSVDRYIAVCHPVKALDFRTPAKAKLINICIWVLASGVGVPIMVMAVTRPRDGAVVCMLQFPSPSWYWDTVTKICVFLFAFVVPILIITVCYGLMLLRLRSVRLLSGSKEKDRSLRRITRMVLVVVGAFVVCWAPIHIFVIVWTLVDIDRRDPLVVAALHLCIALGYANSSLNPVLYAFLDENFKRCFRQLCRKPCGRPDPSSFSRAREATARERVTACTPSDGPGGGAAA
Sequence of Beta-galactosidase (Q8VNN2 whole entry): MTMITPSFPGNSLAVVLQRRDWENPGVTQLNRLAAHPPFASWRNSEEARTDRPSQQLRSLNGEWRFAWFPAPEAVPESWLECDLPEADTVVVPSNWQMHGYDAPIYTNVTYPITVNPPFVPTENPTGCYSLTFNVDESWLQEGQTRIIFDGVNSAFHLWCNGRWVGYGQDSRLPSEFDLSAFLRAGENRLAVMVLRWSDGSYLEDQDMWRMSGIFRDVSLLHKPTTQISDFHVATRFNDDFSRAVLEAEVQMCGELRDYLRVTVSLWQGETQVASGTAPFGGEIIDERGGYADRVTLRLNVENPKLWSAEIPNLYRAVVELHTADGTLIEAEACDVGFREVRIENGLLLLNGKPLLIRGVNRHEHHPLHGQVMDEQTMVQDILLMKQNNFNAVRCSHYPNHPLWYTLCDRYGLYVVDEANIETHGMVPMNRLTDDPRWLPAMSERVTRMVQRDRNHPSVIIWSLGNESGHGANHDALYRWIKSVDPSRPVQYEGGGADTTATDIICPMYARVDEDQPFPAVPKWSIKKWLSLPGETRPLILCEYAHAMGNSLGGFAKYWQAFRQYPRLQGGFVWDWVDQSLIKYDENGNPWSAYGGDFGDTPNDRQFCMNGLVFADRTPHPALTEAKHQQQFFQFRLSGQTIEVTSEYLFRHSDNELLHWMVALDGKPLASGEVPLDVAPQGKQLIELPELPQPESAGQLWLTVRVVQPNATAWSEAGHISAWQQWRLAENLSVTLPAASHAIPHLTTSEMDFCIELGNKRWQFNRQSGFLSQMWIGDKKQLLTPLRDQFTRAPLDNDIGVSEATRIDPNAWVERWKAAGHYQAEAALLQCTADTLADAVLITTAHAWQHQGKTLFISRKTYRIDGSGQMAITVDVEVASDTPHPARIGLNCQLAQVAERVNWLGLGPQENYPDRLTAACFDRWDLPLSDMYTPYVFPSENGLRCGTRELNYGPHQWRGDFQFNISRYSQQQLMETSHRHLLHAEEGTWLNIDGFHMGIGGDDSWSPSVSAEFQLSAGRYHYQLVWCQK
Sequence of Trypsin (P00761 whole entry): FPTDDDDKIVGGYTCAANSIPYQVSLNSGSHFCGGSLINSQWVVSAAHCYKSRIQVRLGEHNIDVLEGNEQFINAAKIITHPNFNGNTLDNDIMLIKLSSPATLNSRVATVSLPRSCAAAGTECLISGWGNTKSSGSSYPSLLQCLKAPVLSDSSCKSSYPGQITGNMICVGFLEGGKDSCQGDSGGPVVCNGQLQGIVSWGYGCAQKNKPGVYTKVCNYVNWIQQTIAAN
Sequence of Peroxisome proliferator-activated receptor gamma/Nuclear receptor coactivator 3 (P37231 whole entry): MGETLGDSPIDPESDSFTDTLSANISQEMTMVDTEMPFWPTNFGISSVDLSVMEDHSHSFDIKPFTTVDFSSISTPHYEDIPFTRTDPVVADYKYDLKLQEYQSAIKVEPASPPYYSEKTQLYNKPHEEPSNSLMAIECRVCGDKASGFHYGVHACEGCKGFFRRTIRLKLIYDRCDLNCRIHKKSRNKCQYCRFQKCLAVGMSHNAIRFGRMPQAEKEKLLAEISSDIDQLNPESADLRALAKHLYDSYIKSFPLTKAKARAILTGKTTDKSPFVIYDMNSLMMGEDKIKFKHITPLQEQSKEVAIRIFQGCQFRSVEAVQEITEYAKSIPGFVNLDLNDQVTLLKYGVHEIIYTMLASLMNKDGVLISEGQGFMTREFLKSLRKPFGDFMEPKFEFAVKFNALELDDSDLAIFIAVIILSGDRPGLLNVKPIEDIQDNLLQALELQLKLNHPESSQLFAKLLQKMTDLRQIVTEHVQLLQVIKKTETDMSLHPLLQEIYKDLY
Sequence of Peroxisome proliferator-activated receptor gamma/Nuclear receptor coactivator 3 (Q9Y6Q9 whole entry, further chain): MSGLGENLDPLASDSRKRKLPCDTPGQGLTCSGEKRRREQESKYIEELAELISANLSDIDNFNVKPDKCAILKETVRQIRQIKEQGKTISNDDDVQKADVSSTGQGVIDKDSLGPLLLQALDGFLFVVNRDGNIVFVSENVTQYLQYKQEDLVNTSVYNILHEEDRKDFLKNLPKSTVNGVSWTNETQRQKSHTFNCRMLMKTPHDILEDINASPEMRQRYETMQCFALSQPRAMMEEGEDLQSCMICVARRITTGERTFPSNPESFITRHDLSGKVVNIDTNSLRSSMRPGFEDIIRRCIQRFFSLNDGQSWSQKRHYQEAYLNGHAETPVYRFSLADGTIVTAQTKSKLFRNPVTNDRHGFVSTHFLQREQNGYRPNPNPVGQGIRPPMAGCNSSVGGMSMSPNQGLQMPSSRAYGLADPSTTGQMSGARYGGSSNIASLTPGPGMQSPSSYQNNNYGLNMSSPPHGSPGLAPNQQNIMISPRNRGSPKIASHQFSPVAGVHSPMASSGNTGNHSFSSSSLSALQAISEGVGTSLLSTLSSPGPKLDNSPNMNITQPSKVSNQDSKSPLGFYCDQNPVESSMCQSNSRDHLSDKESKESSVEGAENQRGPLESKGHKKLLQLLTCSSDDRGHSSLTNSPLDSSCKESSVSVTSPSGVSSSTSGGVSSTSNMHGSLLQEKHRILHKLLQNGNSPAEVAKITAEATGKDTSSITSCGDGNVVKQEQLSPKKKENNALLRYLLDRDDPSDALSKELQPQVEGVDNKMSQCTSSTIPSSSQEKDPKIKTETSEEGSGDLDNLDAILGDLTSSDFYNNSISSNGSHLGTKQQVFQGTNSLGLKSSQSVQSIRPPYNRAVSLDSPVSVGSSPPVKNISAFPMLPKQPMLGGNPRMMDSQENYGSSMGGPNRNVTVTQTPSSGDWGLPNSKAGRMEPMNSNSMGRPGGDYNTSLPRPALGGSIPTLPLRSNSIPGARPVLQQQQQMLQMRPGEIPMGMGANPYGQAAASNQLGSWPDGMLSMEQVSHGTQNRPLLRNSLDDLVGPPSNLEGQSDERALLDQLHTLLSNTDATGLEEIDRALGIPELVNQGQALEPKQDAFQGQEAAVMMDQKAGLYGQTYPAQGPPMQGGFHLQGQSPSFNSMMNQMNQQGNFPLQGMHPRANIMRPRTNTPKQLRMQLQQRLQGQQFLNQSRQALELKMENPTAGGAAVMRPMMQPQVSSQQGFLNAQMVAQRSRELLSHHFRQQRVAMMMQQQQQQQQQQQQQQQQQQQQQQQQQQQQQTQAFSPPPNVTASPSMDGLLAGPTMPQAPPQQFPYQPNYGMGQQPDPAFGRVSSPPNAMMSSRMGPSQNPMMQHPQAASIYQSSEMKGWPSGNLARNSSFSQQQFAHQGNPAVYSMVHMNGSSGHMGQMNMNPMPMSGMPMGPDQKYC

Compound: CC(C)Nc1nnc(SCC(=O)Nc2ccc3c(c2)C(=O)c2ccccc2C3=O)s1
- IC50 (Hexokinase HKDC1): 29.7 µM (inactive)

Compound: Cc1cccc2c(N=NC(=O)c3ccc(NS(=O)(=O)c4cccs4)cc3)c(O)[nH]c12
- IC50 (Hexokinase HKDC1): 15.5 µM (active)

Compound: Cc1ccccc1Oc1nnc(-c2cccs2)c2ccccc12
- IC50 [1]: > 100 µM (not active)
- IC50 [2]: > 100 µM (inactive)

Compound: CC(=O)c1ccc(-c2nc3c4ccccc4ccn3c2C(C)=O)o1
- EC50 (HEK293 [3]): > 8 µM (inactive)
- EC50 (HEK293 [4]): 503 nM (active)
- EC50 [5]: > 8 µM (not active)
- AC50 (HEK293 [6]): 3.1 µM (active)
- EC50 (HEK293 [7]): 55.2 nM (active)
- EC50 [8]: > 112 µM (not active)
- EC50 [9]: > 112 µM (not active)

Compound: COc1cc(/C=C2\SC(=S)N(NC(=O)c3ccc(O)c(OC)c3)C2=O)ccc1O
- EC50 [10]: > 32 µM (inactive)
- IC50 [11]: > 32 µM (inactive)
- EC50 (Beta-galactosidase): 10.3 µM (active)
- AC50 [12]: > 100 µM (inactive)
- EC50 (Mu-type opioid receptor): > 32 µM (inactive)
- IC50 [13]: 14.9 µM (active)
- IC50 [14]: > 32 µM

Compound: O=C(Nc1ccccc1)c1ccc(-c2ccccc2)s1
- EC50 [15]: 35 µM (not active)
- AC50 (HeLa): 48 µM (active)
- EC50 [16]: 10.6 µM (not active)
- EC50 [17]: 8.84 µM (active)

Compound: Cc1cccc(/C=N/NC(=O)c2ccc(Br)cc2)c1
- AC50 (Trypsin): 7.5 µM (active)
- AC50 (CAAX prenyl protease 2): 7.44 µM (active)

Source: ChEMBL document CHEMBL1201862, “PubChem BioAssay data set” (2004)
